Molecules are shown by their SMILES. Counter-ions that a name gives are not always drawn.

`CC(C)CN1CCCCC1C(=O)Nc1cc(C(F)(F)F)ccc1-c1cc(Oc2cccc3ccc(N)nc23)ncn1` (stereo not drawn) yielded a melting point of 111.1 to 113.9 °C.
`CC1(C)CC(Nc2nc(C(F)(F)F)ccc2-c2cc(Oc3cccc4sc(N)nc34)ncn2)CC(C)(C)N1` (as salt: trifluoroacetic acid salt) [Example 35, 4-(6-(2-(2,2,6,6-Tetramethylpiperidin-4-ylamino)-6-(trifluoromethyl)pyridin-3-yl)pyrimidin-4-yloxy)benzo[d]thiazol-2-amine trifluoroacetic acid salt] returned a melting point of 264 to 265.1 °C.
Regarding `CC(=O)Nc1nc2c(Oc3cc(-c4ccc(C(F)(F)F)nc4NC4CC(C)(C)NC(C)(C)C4)ncn3)cccc2s1` (as salt: trifluoroacetic acid salt) [Example 36, N-(4-(6-(2-(2,2,6,6-Tetramethylpiperidin-4-ylamino)-6-(trifluoromethyl)-pyridin-3-yl)pyrimidin-4-yloxy)benzo[d]thiazol-2-yl)acetamide trifluoroacetic acid salt], the melting point is 253.4 to 254.1 °C.
For `CC(=O)Nc1nc2c(Oc3cc(-c4ccc(C(F)(F)F)cc4NC(=O)C4(C)CCCCN4CC(C)C)ncn3)cccc2s1` (stereo not drawn) (as salt: trifluoroacetic acid salt) [Example 44, N-(2-(6-(2-Acetamidobenzo[d]thiazol-4-yloxy)pyrimidin-4-yl)-5-(trifluoromethyl)phenyl)-1-isobutyl-2-methylpiperidine-2-carboxamide trifluoroacetic acid salt], the melting point is below 80 °C.
Under `CC1CC[C@@H](C(=O)Nc2cc(C(F)(F)F)ccc2-c2cc(Oc3cccc4ccc(N)nc34)ncn2)N1` (mixture of isomers) [Example 48, (2S,5R,S)-N-(2-(6-(2-Aminoquinolin-8-yloxy)pyrimidin-4-yl)-5-(trifluoromethyl)phenyl)-5-methylpyrrolidine-2-carboxamide] stands 162.9 to 164 °C; under `CC(=O)Nc1nc2c(Oc3cc(-c4ccc(C(F)(F)F)nc4NCC4CCCCN4CC(C)C)ncn3)cccc2s1` (racemic) [Example 31, N-(4-(6-(2-(((R,S)-1-isobutylpiperidin-2-yl)methylamino)-6-(trifluoromethyl)pyridin-3-yl)pyrimidin-4-yloxy)benzo[d]thiazol-2-yl)acetamide], 121.7 to 121.9 °C; under `CC(=O)Nc1nc2c(Oc3cc(-c4ccc(C(F)(F)F)nc4NC4CCN(CC(C)C)C4)ncn3)cccc2s1` (stereo not drawn) [Example 3, N-(4-(6-(2-(1-Isobutylpyrrolidin-3-ylamino)-6-(trifluoromethyl)pyridin-3-yl)pyrimidin-4-yloxy)benzo[d]thiazol-2-yl)acetamide], 138 to 139 °C.
As for `CC(=O)Nc1nc2c(Oc3cc(-c4ccc(C(F)(F)F)nc4NC4CCN(C(C)C)C4)ncn3)cccc2s1` (stereo not drawn) [Example 4, N-(4-(6-(2-(1-Isopropylpyrrolidin-3-ylamino)-6-(trifluoromethyl)pyridin-3-yl)pyrimidin-4-yloxy)benzo[d]thiazol-2-yl)acetamide], the melting point fell in the range of 140 to 141 °C.
Under `CC(C)CN1CCCCC1C(C)(C)Nc1nc(C(F)(F)F)ccc1-c1cc(Oc2cccc3sc(N)nc23)ncn1` (stereo not drawn) [Example 5, 4-(6-(2-(2-(1-Isobutylpiperidin-2-yl)propan-2-ylamino)-6-(trifluoromethyl)pyridin-3-yl)pyrimidin-4-yloxy)benzo[d]thiazol-2-amine] stands 166 to 170 °C; under `CC(C)CN1CCCCC1CNc1nc(C(F)(F)F)ccc1-c1cc(Oc2cccc3[nH]c(=O)c(N)nc23)ncn1` (stereo not drawn) [Example 6], 228 to 229 °C.
Take `CC(C)CN1CCCCC1CN(C)c1nc(C(F)(F)F)ccc1-c1cc(Oc2cccc3sc(N)nc23)ncn1` (stereo not drawn) [Example 24, 4-(6-(2-(((1-Isobutylpiperidin-2-yl)methyl)(methyl)amino)-6-(trifluoromethyl)pyridin-3-yl)pyrimidin-4-yloxy)benzo[d]thiazol-2-amine]: the melting point was 98.9 to 101.9 °C.
With `CC(C)CN1CCC[C@H]1CNc1nc(C(F)(F)F)ccc1-c1cc(Oc2cccc3sc(N)nc23)ncn1` [Example 25] the figure was 198 °C (dec.); with `CC(C)CN1CCCCC1CNc1nc(C(F)(F)F)ccc1-c1cc(Oc2cccc3sc(N)nc23)ncn1` (stereo not drawn) [Example 26], 118 to 118.2 °C.
Compound `CC(C)N1CCCCC1CNc1nc(C(F)(F)F)ccc1-c1cc(Oc2cccc3sc(N)nc23)ncn1` (stereo not drawn) [Example 27] returned a melting point of 211.3 to 213 °C.
With `CC(C)CN1CCC[C@H]1CN(C)c1nc(C(F)(F)F)ccc1-c1cc(Oc2cccc3sc(N)nc23)ncn1` [Example 28] the figure was 93.2 to 96.8 °C; with `CC(=O)Nc1nc2c(Oc3cc(-c4ccc(C(F)(F)F)nc4N(C)CC4CCCCN4CC(C)C)ncn3)cccc2s1` (stereo not drawn) [Example 29, N-(4-(6-(2-(((1-isobutylpiperidin-2-yl)methyl)(methyl)amino)-6-(trifluoromethyl)pyridin-3-yl)pyrimidin-4-yloxy)benzo[d]thiazol-2-yl)acetamide], 123.2 to 125.4 °C; with `CC(=O)Nc1nc2c(Oc3cc(-c4ccc(C(F)(F)F)nc4NC[C@@H]4CCCN4CC(C)C)ncn3)cccc2s1` [Example 30], 105.8 to 107.3 °C.
With `CC(=O)Nc1nc2c(Oc3cc(-c4ccc(C(F)(F)F)nc4NCC4CCCCN4C(C)C)ncn3)cccc2s1` (stereo not drawn) [Example 32] the figure was 159.3 to 162 °C; with `CC(=O)Nc1nc2c(Oc3cc(-c4ccc(C(F)(F)F)cc4NC(=O)[C@@H]4CCN4C(C)C)ncn3)cccc2s1` [Example 37, (2S)-N-(2-(6-(2-Acetamidobenzo[d]thiazol-4-yloxy)pyrimidin-4-yl)-5-(trifluoromethyl)phenyl)-1-isopropylazetidine-2-carboxamide], 198.8 to 199.4 °C.
As to `CC(=O)Nc1nc2c(Oc3cc(-c4ccc(C(F)(F)F)cc4NC(=O)[C@@H]4CCN4CC(C)C)ncn3)cccc2s1` [Example 38, (2S)-N-(2-(6-(2-Acetamidobenzo[d]thiazol-4-yloxy)pyrimidin-4-yl)-5-(trifluoromethyl)phenyl)-1-isobutylazetidine-2-carboxamide], the melting point was in the range of 174.4 to 174.9 °C.
With `CC(C)CN1CCCCC1C(=O)Nc1cc(C(F)(F)F)ccc1-c1cc(Oc2cccc3[nH]c(=O)c(N)nc23)ncn1` (stereo not drawn) [Example 42, N-(2-(6-(3-Amino-2-oxo-1,2-dihydroquinoxalin-5-yloxy)pyrimidin-4-yl)-5-(trifluoromethyl)phenyl)-1-isobutylpiperidine-2-carboxamide] the figure was above 250 °C; with `CC(=O)Nc1nc2c(Oc3cc(-c4ccc(C(F)(F)F)cc4NC(=O)C4(C)CCCCN4)ncn3)cccc2s1` (stereo not drawn) [Example 43, N-(2-(6-(2-Acetamidobenzo[d]thiazol-4-yloxy)pyrimidin-4-yl)-5-(trifluoromethyl)phenyl)-2-methylpiperidine-2-carboxamide], 146.4 to 148.8 °C; with `CC(=O)Nc1nc2c(Oc3cc(-c4ccc(C(F)(F)F)cc4NC(=O)C4CCCCN4CC4CC4)ncn3)cccc2s1` (stereo not drawn) [Example 49, N-(2-(6-(2-Acetamidobenzo[d]thiazol-4-yloxy)pyrimidin-4-yl)-5-(trifluoromethyl)phenyl)-1-(cyclopropylmethyl)piperidine-2-carboxamide], 212.3 to 213.5 °C.
For the compound `CC(=O)Nc1nc2c(Oc3cc(-c4ccc(C(F)(F)F)cc4NC(=O)C4CCCCN4C(C)C)ncn3)cccc2s1` (stereo not drawn) [Example 50, N-(2-(6-(2-Acetamidobenzo[d]thiazol-4-yloxy)pyrimidin-4-yl)-5-(trifluoromethyl)phenyl)-1-isopropylpiperidine-2-carboxamide], the melting point was 260 °C (dec.).
Regarding `CC(=O)Nc1nc2c(Oc3cc(-c4ccc(C(F)(F)F)cc4NC(=O)C4CCCCN4CC(C)C)ncn3)cccc2s1` (stereo not drawn) [Example 51, N-(2-(6-(2-Acetamidobenzo[d]thiazol-4-yloxy)pyrimidin-4-yl)-5-(trifluoromethyl)phenyl)-1-isobutylpiperidine-2-carboxamide], the melting point lay in the range of 153.4 to 154.9 °C.
Under `CC(=O)Nc1nc2c(Oc3cc(-c4ccc(C(F)(F)F)cc4NCc4cncn4Cc4ccccc4)ncn3)cccc2s1` [Example 54, N-(4-(6-(2-((1-Benzyl-1H-imidazol-5-yl)methylamino)-4-(trifluoromethyl)-phenyl)pyrimidin-4-yloxy)benzo[d]thiazol-2-yl)acetamide] stands 264 to 264.1 °C; under `CC(=O)Nc1nc2c(Oc3cc(-c4ccc(C(F)(F)F)cc4NCc4cncn4C)ncn3)cccc2s1` [Example 55, N-(4-(6-(2-((1-Methyl-1H-imidazol-5-yl)methylamino)-4-(trifluoromethyl)-phenyl)pyrimidin-4-yloxy)benzo[d]thiazol-2-yl)acetamide], 263 to 265.2 °C.

Values taken from patent publication US7301022B2, “Vanilloid receptor ligands and their use in treatments” (Amgen Inc., priority 2005, dated 2007).
